# Test results as given in the supplement of paper PMC10307832.
# Experiments:
# Assay in all cases: relative viability (nuclei count vs DMSO), 5 days (fraction); higher = more cells survive
# [1] = compound: CC(C)C[C@H](NC(=O)[C@H](Cc1ccccc1)NC(=O)c1cnccn1)B(O)O [Bortezomib] + COc1cccc2cc(-c3nc([C@H]4CC[C@H](C(=O)O)CC4)n4ncnc(N)c34)[nH]c12 [OSI-027] (partner 0.5 µM)
# Summary of the method: (§1)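 For relative viability, nuclei counts in treated wells were divided by those in vehicle wells. Lung cancer cell lines had been pin-tool dosed in 1536-well plates the day after seeding and cultured for 5 days, then fixed and stained in one step (final 0.05% Triton X-100, 1% formaldehyde, 1 ug/ml Hoechst) and imaged at 4×. Doses were one drug alone or a fixed anchor-drug dose plus five library-drug doses (not always all listed) in √10 steps, and values are duplicate-plate medians.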
# [2] = compound: COC1=CC(c2cc3ccccc3[nH]2)=N/C1=C\c1[nH]c(C)cc1C [Obatoclax] + CS(=O)(=O)CCNCc1ccc(-c2ccc3ncnc(Nc4ccc(OCc5cccc(F)c5)c(Cl)c4)c3c2)o1 [Lapatinib] (partner 2 µM)
# Summary of the method: as §1
# [3] = compound: COC1=CC(c2cc3ccccc3[nH]2)=N/C1=C\c1[nH]c(C)cc1C [Obatoclax] + CCNC(=O)c1noc(-c2cc(C(C)C)c(O)cc2O)c1-c1ccc(CN2CCOCC2)cc1 [Luminespib] (partner 0.01 µM)
# Summary of the method: as §1
# [4] = compound: COC1=CC(c2cc3ccccc3[nH]2)=N/C1=C\c1[nH]c(C)cc1C [Obatoclax] + CC(=O)Nc1cccc(-n2c(=O)n(C3CC3)c(=O)c3c(Nc4ccc(I)cc4F)n(C)c(=O)c(C)c32)c1 [Trametinib] (partner 0.02 µM)
# Summary of the method: as §1
Cell Line,relative viability ([1]; first compound 0.0002 µM),relative viability ([1]; first compound 0.000632 µM),relative viability ([1]; first compound 0.002 µM),relative viability ([1]; first compound 0.006325 µM),relative viability ([1]; first compound 0.02 µM),relative viability ([2]; first compound 0.01 µM),relative viability ([2]; first compound 0.03162 µM),relative viability ([2]; first compound 0.1 µM),relative viability ([2]; first compound 0.3162 µM),relative viability ([2]; first compound 1 µM),relative viability ([3]; first compound 0.01 µM),relative viability ([3]; first compound 0.03162 µM),relative viability ([3]; first compound 0.1 µM),relative viability ([3]; first compound 0.3162 µM),relative viability ([3]; first compound 1 µM),relative viability ([4]; first compound 0.01 µM),relative viability ([4]; first compound 0.03162 µM),relative viability ([4]; first compound 0.1 µM),relative viability ([4]; first compound 0.3162 µM),relative viability ([4]; first compound 1 µM)
LK-2,0.223,0.174,0.175,0.175,0.177,0.994,0.838,0.915,0.886,0.805,0.183,0.23,0.231,0.189,0.164,0.846,0.794,1.02,0.783,0.914
LOU-NH91,0.688,0.68,0.581,0.298,0.251,0.826,0.73,0.669,0.603,0.59,0.351,0.367,0.345,0.265,0.294,0.766,0.784,0.717,0.723,0.592
LU99A,0.328,0.294,0.318,0.296,0.197,0.997,0.922,0.914,0.255,0.196,0.268,0.243,0.259,0.229,0.246,0.598,0.55,,0.631,0.557
LXF-289,0.773,0.754,0.803,0.0966,0.0619,0.893,0.903,0.934,0.832,0.624,0.707,0.649,0.594,0.619,0.662,0.642,0.663,0.671,0.707,0.671
NCI-H23,0.579,0.335,0.542,0.282,0.138,1.13,1.23,0.805,0.619,0.458,0.21,0.193,0.195,0.185,0.191,0.384,0.442,0.451,0.357,0.363
NCI-H322M,0.524,,0.519,0.288,0.27,0.59,0.505,0.763,0.608,0.546,0.949,0.809,,0.758,0.39,0.547,0.482,0.71,0.535,0.669
NCI-H358,0.849,0.547,0.703,0.0722,0.0716,0.482,0.33,0.598,0.336,0.208,0.395,0.245,0.449,0.351,0.161,0.129,0.127,0.165,0.135,0.114
NCI-H460,0.561,0.478,0.64,0.126,0.021,1,1.06,0.806,0.0507,0.0208,0.0359,0.0371,0.0282,0.0268,0.019,0.151,0.132,0.232,0.0458,0.0584
NCI-H520,0.193,0.235,0.196,0.272,0.223,0.805,0.821,0.879,0.493,0.22,0.231,0.215,0.257,0.246,0.205,0.675,0.777,0.86,0.439,0.269
NCI-H596,0.804,0.619,0.766,0.21,0.195,0.941,0.951,0.827,0.643,0.503,1.04,0.852,0.859,0.611,0.574,0.814,0.784,0.692,0.652,0.565
NCI-H647,0.574,0.437,0.483,0.0304,0.0382,1.02,0.982,0.48,0.189,0.144,0.128,0.186,0.179,0.21,0.114,0.406,0.475,0.422,0.22,0.127
NCI-H661,0.659,0.658,0.688,0.33,0.183,0.421,0.47,0.539,0.474,0.611,0.917,0.937,0.921,0.808,0.601,0.585,0.553,0.593,0.493,0.473
NCI-H727,0.557,0.515,0.494,0.467,0.378,0.949,0.792,0.798,0.715,0.457,0.278,0.344,0.347,0.316,0.342,0.41,0.393,0.414,0.404,0.391
NCI-H838,0.355,0.363,0.44,0.178,0.131,1.07,1.17,0.465,0.62,0.377,0.226,0.222,0.3,0.243,0.188,0.548,0.559,0.346,0.493,0.248
NCI-H1355,0.386,0.356,0.44,0.22,0.163,1.06,0.886,0.838,0.862,0.921,0.641,0.588,0.769,0.632,0.78,0.403,0.462,0.439,0.35,0.454
NCI-H1395,0.574,0.529,0.639,0.353,0.271,1,0.943,0.79,1.09,0.592,0.634,0.491,0.701,0.523,0.421,0.914,0.999,0.931,0.94,0.737
